Measurements reported in US7507749B2, “Antitumor agents” (priority 2001, dated 2009).

Tests used:
[1] = test system: pancreatic ductal adenocarcinoma-03; assay type: in vivo; details: Cg 8 in table (Cage 13 in text); IV 7.5 mg/kg/inj days 6,14; total 15 mg/kg
Method: BDF1 female mice were obtained from N.C.I., CRL-Ral (D.O.B. was Feb. 26, 2001; D.O.A. was Mar. 10, 2001). The mice weighed an average of 22.5 gm. Mice were implanted SC with pancreatic ductal adenocarcinoma-03 passage 143. (D.O.T. was May 29, 2001; Td was 2.3 days).
The R-enantiomer of compound 22c was suspended in 3% ethanol, 1% POE-80, 0.25% sodium bicarbonate (by volume) to effect solution. dH2O was then added, and the pH adjusted to 7 with HCl. […] The R-enantiomer of compound 22b was suspended in 3% ethanol, 1% POE-80, 0.5% sodium-bicarbonate (by volume) to effect solution. Then, dH2O was added, and the pH adjusted to 7.5 with HCl. […] Adriamycin (source ADRIA; lot 2033BC) was suspended in dH2O to effect solution, and the pH was 6.0.
Treatment began six days following implant, at which time the tumors were palpable size (126 mg median). The duration of treatment was prolonged (18 days) in order to obtain a clear separation in efficacy between the compounds.

[2] = test system: pancreatic ductal adenocarcinoma 03; details: historic; cited from earlier work
[3] = test system: mammary adenocarcinoma-16/C; test: Test F: R-enantiomers of 22b and 22c against early staged mammary adenocarcinoma-16/C; assay type: in vivo, C3H female mice; details: Cage 11, IV 7.5 mg/kg/inj days 1,5, total 15 mg/kg
Method: C3H female mice were obtained from N.C.I. (D.O.B. was […]; D.O.A. was Jan. 27, 2001). The mice weighed an average of 19.2 gm. Mice were implanted SC with mammary adenocarcinoma-16/C passage-170, a fast growing, highly invasive, highly metastatic tumor (D.O.T. was Mar. 8, 2001; Td was 1.2 days).
The R-enantiomers of both Compound 22c and Compound 22b were each suspended in 3% ethanol, 1% POE-80, 0.5% sodium bicarbonate (by volume) to effect solution, P.B.S. was then added and the pH adjusted to 7 with HCl. Adriamycin (ADRIA; lot number 20338c) was suspended in dH2O to effect solution and the pH was adjusted to 6.0. Mice were administered 0.2 ml per IV injection.

B16 melanoma = details: historic, B16 melanoma implanted subcutaneously (SC); cited from earlier work

Structure (SMILES): COc1ccc2ccc(Oc3ccc(OC(C)C(=O)O)cc3)nc2c1 (stereo not drawn)
- melting point: 164 to 166 °C

Structure (SMILES): COc1cccc2c1C(=O)c1c(O)c3c(c(O)c1C2=O)C[C@@](O)(C(=O)CO)C[C@@H]3O[C@H]1C[C@H](N)[C@H](O)[C@H](C)O1 [Adriamycin, reference compound]
- % Body Wt change between day 6 and day 24 [1]: −5.4%
- % T/C mass [1]: 17.0%
- Activity Rating [1]: +++ (2.0-2.8)
- CR's [1]: 1/5
- Drug Deaths [1]: 0/5
- Growth Delay [1]: 17.5 days
- Log Kill [1]: 2.3
- Median Tumor Mass on Day 24 (Range) [1]: 383 mg
- Median time for tumors to 1,000 mg (range) [1]: 34 days
- PR's [1]: 1/5
- Tumor Free day-157 [1]: 0/5
- activity rating (sensitivity of the tumor to standard agents) [2]: +++ (2.0-2.8)
- % Body Wt Loss at Nadir [3]: 0%
- % T/C mass [3]: 0%
- Day of Nadir [3]: 8 days
- Drug Deaths [3]: 1/5
- Growth Delay [3]: 12.0 days
- Log Kill [3]: 3.6
- Median Tumor Mass on Day 10 (Range) [3]: 0 mg
- Median time for tumors to 1000 mg (range) [3]: 21.5 (17-27.5) days
- Tumor Free day-155 [3]: 0/5
- % Body Wt Loss at Nadir ([3]; listed as adriamycin): no body weight loss
- % T/C mass ([3]; listed as adriamycin): 0%
- Activity Rating ([3]; listed as adriamycin): ++++ (>2.8)
- Drug Deaths ([3]; listed as adriamycin): one delayed drug-death
- activity rating (responsiveness of the tumor to standard agents) (B16 melanoma): +or +/−
